{"source": "paper PMC5513871", "about": "(British Journal of Pharmacology, 2017)", "key": {"[1]": {"tested_on": "normal dogs under anaesthesia", "details": "1 μmol/kg/min; ref Roza and Berman, 1971; cited from earlier work"}, "IK1": {"tested_on": "IK1", "details": "read-out: IC50 IK1; ref Filgueiras‐Rama et al., 2012; cited from earlier work"}, "IKACh": {"tested_on": "IKACh", "details": "read-out: IC50 IKACh; ref Filgueiras‐Rama et al., 2012; cited from earlier work"}, "IKATP": {"tested_on": "IKATP", "details": "read-out: IC50 IKATP; ref Filgueiras‐Rama et al., 2012; cited from earlier work"}, "[2]": {"tested_on": "Langendorff‐perfused sheep heart", "details": "ref Noujaim et al., 2011; cited from earlier work"}, "AF goat model": {"tested_on": "AF goat model", "details": "cited from earlier work"}, "cAVB dogs": {"tested_on": "cAVB dogs", "assay": "Proarrhythmia test", "format": "in vivo, dog", "details": "cAVB dogs n = 9, paced 1 Hz; PA‐6 2.5 mg/kg/10 min, dofetilide 0.025 mg/kg/5 min"}, "anaesthetized SR dogs": {"tested_on": "anaesthetized SR dogs", "details": "4 mg/kg/40 min, at 40 min; ref Yokoyama et al. (2009); cited from earlier work"}, "[3]": {"details": "awake goats, 1 week of AF, ref Eijsbouts et al., 2006"}, "[4]": {"details": "awake goats, 4 weeks of AF, ref Eijsbouts et al., 2006"}, "[5]": {"details": "awake goats, 8 weeks of AF, ref Eijsbouts et al., 2006"}, "[6]": {"details": "awake goats, 16 weeks of AF, ref Eijsbouts et al., 2006"}}, "note": "pIC50: −log10 of the molar value. Like-named read-outs stand apart in the source and are kept apart here."}
{"smiles": "[Ba+2].[Cl-].[Cl-]", "note": "[BaCl2]", "values": [{"measurement": "Course of events upon infusion", "setting": "[1]", "value": "hypotension, flaccid paralysis of skeletal muscles, ventricular tachycardia and fibrillation"}]}
{"smiles": "CCN(CC)CCCC(C)Nc1ccnc2cc(Cl)ccc12", "note": "(stereo not shown) [chloroquine]", "values": [{"measurement": "pIC50", "setting": "IK1", "value": 6.16}, {"measurement": "pIC50", "setting": "IKACh", "value": 6.42}, {"measurement": "pIC50", "setting": "IKATP", "value": 6.29}, {"measurement": "Concentration terminating cholinergically induced AF", "setting": "[2]", "value": 10, "unit": "µM"}]}
{"smiles": "c1ccc(C2(c3ccccc3)CC2C2=NCCN2)cc1", "note": "(stereo not shown) [cibenzoline]", "values": [{"measurement": "Cardioversion rate", "setting": "AF goat model; 3 to 4 weeks of pacing induced persistent AF, ref Eijsbouts et al., 2006", "value": 78, "unit": "%"}, {"measurement": "Cardioversion rate", "setting": "AF goat model; [3]", "value": 80, "unit": "%"}, {"measurement": "Cardioversion rate", "setting": "AF goat model; [4]", "value": 78, "unit": "%"}, {"measurement": "Cardioversion rate", "setting": "AF goat model; [5]", "value": 67, "unit": "%"}, {"measurement": "Cardioversion rate", "setting": "AF goat model; [6]", "value": 63, "unit": "%"}]}
{"smiles": "CN(CCOc1ccc(NS(C)(=O)=O)cc1)CCc1ccc(NS(C)(=O)=O)cc1", "note": "[dofetilide]", "values": [{"measurement": "LVMAPD80", "setting": "cAVB dogs", "value": "400 ± 64", "unit": "ms"}, {"measurement": "QTc", "setting": "cAVB dogs", "value": "600 ± 33", "unit": "ms"}, {"measurement": "STV", "setting": "cAVB dogs", "value": "1.82 ± 0.88", "unit": "ms"}]}
{"smiles": "CC(C)NC[C@@H](O)c1ccc(NS(C)(=O)=O)cc1", "note": "[d‐Sotalol]", "values": [{"measurement": "Cardioversion rate", "setting": "AF goat model; 3 to 4 weeks of pacing induced persistent AF, ref Wijffels et al., 1999", "value": 92, "unit": "%"}]}
{"smiles": "O=C(NCC1CCCCN1)c1cc(OCC(F)(F)F)ccc1OCC(F)(F)F", "note": "(stereo not shown) [flecainide]", "values": [{"measurement": "Cardioversion rate", "setting": "AF goat model; [3]", "value": 60, "unit": "%"}, {"measurement": "Cardioversion rate", "setting": "AF goat model; [4]", "value": 33, "unit": "%"}, {"measurement": "Cardioversion rate", "setting": "AF goat model; [5]", "value": 33, "unit": "%"}, {"measurement": "Cardioversion rate", "setting": "AF goat model; [6]", "value": 17, "unit": "%"}]}
{"smiles": "N=C(N)c1ccc(OCCCCCOc2ccc(C(=N)N)cc2)cc1", "note": "[pentamidine]", "values": [{"measurement": "QTc increase", "setting": "anaesthetized SR dogs", "value": "approx. 8%"}]}
